The results in this text go back to US6365571B1, “FGF inhibitor, angiogenesis inhibitor and antitumor agent containing complestatin or its derivative as effective ingredient” (NODA Institute for Scientific Research, priority 1998, dated 2002).

For orientation: inhibition means the change of the read-out against control, counted positive when it falls.

One experiment relates to bFGF receptors. Put plainly: Inhibition of specific binding of 125I-bFGF to receptors on Balb/3T3 clone A31 cells. The following applies: various concentrations, 2 ng/ml 125I-bFGF, 1.5 hours at 4° C., FIG. 5. Also noted: species or system mouse. As to the method: (3) Inhibitory effects on binding of bFGF to receptors was investigated for the above-mentioned sample solution according to the method of A. Yayon, et al. (Proc. Natl. Acad. Sci., USA, 90, 10643, 1993).
Namely, 1 ml of medium containing mouse fibroblast cell Balb/3T3 clone A31 cells at a concentration of 1×10^5 cells/ml (Dulbecco's modified Eagle's medium containing 10% calf serum, 25 mM HEPES (pH 7.5), 10 units/ml of penicillin and 10 μg/ml of streptomycin (10% CS/DMEM)) was added to a 24-well culture plate, and cultured for one day at 37° C. in a CO2 incubator. Furthermore, mouse fibroblast cells are known to express FGF receptors on their cell surfaces (J. Biol. Chem., 268, 9611, 1993). […]
Following completion of the reaction, after removing the binding medium and washing once with cold binding medium, the plate was washed twice with cold PBS (0.2 g potassium chloride, 0.2 g potassium primary phosphate, 8 g sodium chloride, 1.15 g sodium secondary phosphate and 1 liter of deionized water) at pH 7.5 containing 1.6 M sodium chloride. […] This procedure was repeated again, the solution was combined with the previous solution and then transferred to an RIA tube where radioactivity was measured with a gamma counter (available from Pharmacia Co.).
The amount of bFGF bound to receptors (specifically bound amount) was determined according to the following formula: […]

The next experiment deals with Balb/3T3 clone A31 cells. Put plainly: Inhibition of cell migration stimulated by bFGF (chemotaxis chamber). Type of experiment: cell-based, mouse. Conditions: various concentrations, 1 ng/ml bFGF, 5 hours, FIG. 7. The text has this: The effect of complestatin on cell migration stimulated by bFGF was investigated using a 96-well chemotaxis chamber (available from NEURO PROBE CO.) installed with an 8 μm frame filter (available from NEURO PROBE CO.) precoated with gelatin.
The experimental principle is illustrated-in FIG. 6. When bFGF is placed in the bottom well, cells adhered to the frame filter in the top well migrate to the bottom well.
Addition of complestatin to the bottom well can be used to investigate the inhibitory effect of complestatin on cell movement.
(1) 100 μl of cell suspension (0.5% CS/DMEM containing Balb/3T3 clone A31 cells at a concentration of 5×10^5 cells/ml) were placed in the top wells. In addition, 35 μl of 0.5% CS/DMEM containing various concentrations of complestatin and 1 ng/ml of bFGF were placed in the bottom wells.
(2) After incubating the chamber for 5 hours at 37° C. in a CO2 incubator, the frame filter was removed from the chamber, the cells were stained with Diff-Quik staining solution (trade name, available from Kokusai Shiyaku Co.), and the number of cells that migrated to the bottom surface of the filter was counted. Furthermore, with the exception of not adding complestatin to the bottom wells, the same procedure was performed for the control.

The subject of experiment [1] is fetal bovine heart endothelial (FBHE) cells. Put plainly: Inhibition of FBHE cell growth stimulated by bFGF. Type of experiment: cell-based. Conditions: various concentrations, 1 ng/ml bFGF, 2 days, FIG. 8. The protocol:
(§1) Growth of both fetal bovine heart endothelial (FBHE) cells and human umbilical vein endothelial cells (HUVEC) was promoted by addition of bFGF to the media. The inhibitory effect of complestatin on the cell growth stimulated by bFGF was investigated using these cells.
(1) 10% CS/DMEM containing FBHE at a concentration of 1×10^4 cells/ml was prepared for the cell suspension. One ml aliquots of this solution were then inoculated into each well of a 12-well plate and cultured for one day at 37° C. in a CO2 incubator. 1 ng/ml of bFGF and various concentrations of complestatin were added to each well followed by additional culturing for 2 days at 37° C. in a CO2 incubator. Next, the number of cells in each well was counted with a Coulter Counter (trade name, available from Coulter Electronics Co.).

The test system of experiment [2] is human umbilical vein endothelial cells (HUVEC). Kind of experiment: Inhibition of HUVEC cell growth stimulated by bFGF. Type of experiment: cell-based. Conditions: various concentrations, 10 ng/ml bFGF, 2 days, FIG. 8. The protocol:
as §1
(2) On the other hand, medium containing HUVEC at a concentration of 1×10^4 cells/ml (MCDB131 medium containing 10% fetal bovine serum, 25 mM HEPES (pH 7.5), 10 units/ml of penicillin and 10 μg/ml of streptomycin) was prepared for the cell suspension. One ml aliquots of the cell suspension were inoculated into each well of a 12-well plate precoated with type I collagen, and incubated for one day at 37° C. in a CO2 incubator. 10 ng/ml of bFGF and various concentrations of complestatin were added to each well followed by additional incubation for 2 days at 37° C. in a CO2 incubator. Next, the number of cells in each well was counted with a Coulter Counter (trade name, available from Coulter Electronics Co.). Furthermore, with the exception of not adding complestatin, the same procedure was performed for the control.

Experiment [3] relates to bovine aortic endothelial cells (BAEC). Put plainly: Tube formation of vascular endothelial cells in collagen gel. The following applies: Bos taurus, 48 h, 2 days, read-out: Tube formation inhibition rate. Type of experiment: cell-based. The protocol: The inhibitory effect of complestatin on angiogenesis was investigated using a modified method of Furubayashi, et al. (J. Jap. Pharm., 105, 357, 1995). In this method, vascular endothelial cells form a tube (blood vessel-like tubular structure) in collagen gel. Addition of complestatin to this system makes it possible to investigate the inhibitory effect of complestatin on angiogenesis.
(1) Collagen gel was prepared in the manner described below. To begin with, type I collagen solution (3 mg/ml, available from Wako Junyaku Co.), 10-fold concentrated HEPES-free DMEM, reconstitution buffer (2.2 g of sodium bicarbonate and 4.77 g of HEPES dissolved in 100 ml of 0.05 N aqueous sodium hydroxide solution) and deionized water were mixed on ice at a ratio of 5:1:1:3 followed by the addition of 0.75 ml aliquots to each well of a 12-well plate. This plate was then incubated for 20 minutes in an incubator at 37° C. to form a gel.
(2) A cell suspension was prepared by suspending 3×10^5 cells/ml of bovine aortic endothelial cells (BAEC) in 10% CS/DMEM, after which 1.5 ml aliquots were inoculated onto the collagen gel followed by culturing for one day at 37° C. in a CO2 incubator. After removing the medium and washing four times with DMEM, 0.75 ml aliquots of the above-mentioned type I collagen solution were layered onto the plate followed by gelation at 37° C. in an incubator. 1.5 ml of 0.5% CS/DMEM containing various concentrations of complestatin were added to the resulting gel followed by culturing for 2 days at 37° C. in a CO2 incubator.
(3) After culturing, photographs were taken of four fields randomly selected for each well and these photographs were then analyzed by using the Olympus image processing analyzer Type SP500F (trade name, available from Olympus Co.) to determine the lengths of all tubes. The length of tube was then divided by the field area to determine the tube length per unit area.
The tube formation inhibition rate of complestatin was calculated according to the following formula:
{1− (tube length per unit area at each concentration/tube length per unit area in the absence of addition of complestatin)}×100

The subject of experiment [4] is chorioallantoic membrane of chick embryo. Put plainly: Angiogenesis in the chick embryo chorioallantoic membrane. Type of experiment: in vivo. The following applies: 2 days, % of fertilized eggs with inhibition. As to the method:
The inhibitory effect of complestatin on angiogenesis in the chorioallantoic membrane of chick embryo was investigated according to the method of T. Oikawa, et al. (J. Antibiotics, 44, 1033, 1991). To begin with, a portion of the uppermost part of the air chamber measuring about 1 cm square was removed from three-day-old fertilized chicken eggs, and cultured for 2 days in a humidified incubator. A silicon ring having an outer diameter of 5 mm and inner diameter of 3 mm was placed on the 5-day-old chorioallantoic membrane, and 10 μl of a 1% methylcellulose solution containing various concentrations of the complestatin obtained in Example 2 were added to the inside of the ring.
Moreover, after incubating for 2 days, a suitable amount of fat emulsion (Intralipos, trade name, available from Midori Juji Co.) was injected beneath the chorioallantoic membrane to facilitate microscopic observation followed by observation of angiogenesis in the chorioallantoic membrane. Fertilized eggs in which a region free of blood vessels in the chorioallantoic membrane (having a diameter of at least 3 mm) were judged as having observed inhibition of angiogenesis by complestatin. Angiogenesis inhibition rate (%) was calculated according to the following formula:
100× (number of fertilized eggs in which inhibition of angiogenesis was observed)/(number of fertilized eggs used in test)

For experiment [5], the system named is mouse fibrosarcoma (Meth A) cells. Put plainly: Antitumor activity, Meth A cells transplanted subcutaneously to mice. Type of experiment: in vivo. Conditions: days 1 to 4 and 7 to 9, BALB/c-nu/nu mice, tumor size after 10 days. As to the method:
The antitumor activity of complestatin was confirmed in an experiment using mouse fibrosarcoma (Meth A) cells. To begin with, 1×10^6 Meth A cells cultured in the abdominal cavity of BALB/c-nu/nu mice were transplanted subcutaneously to BALB/c-nu/nu mice (control group: 5 mice, experimental group: 5 mice), and tumor size was measured after 10 days.
Complestatin was dissolved in PBS, and administered intraperitoneally at 250μl/day once a day during days 1 to 4 and days 7 to 9. The dosing concentrations of complestatin were set at 5 mg/kg and 10 mg/kg. The tumor growth inhibition rate caused by complestatin was calculated according to the following formula:
{1− (tumor size at each dosing concentration/tumor size at dosing concentration of 0 mg/kg)}×100

In experiment [6] the test system is human leukemia (HL-60) cells. Put plainly: Antitumor activity, HL-60 cells transplanted subcutaneously to SCID mice. Type of experiment: in vivo, mouse. The following applies: 5 mg/kg intraperitoneally, days 1 to 3, 5 to 9, 12 and 13, CB17 SCID mice, tumor size after 20 days. As to the method:
The antitumor activity of complestatin was confirmed in an experiment using human leukemia (HL-60) cells. To begin with, 5×10^6 HL-60 cells were transplanted subcutaneously to CB17. SCID mice (control group: 4 mice, experimental group: 4 mice), and tumor size was measured after 20 days. Complestatin was dissolved in PBS, and administered intraperitoneally at 250μl/day once a day during days 1 to 3, days 5 to 9 and days 12 and 13. The dosing concentration of complestatin was set at 5 mg/kg. The tumor growth inhibition rate caused by complestatin was calculated according to the following formula:
{1− (tumor size at dosing concentration/tumor size at dosing concentration of 0 mg/kg)}×100

In the case of `CN1C(=O)C(c2cc(Cl)c(O)c(Cl)c2)NC(=O)C2NC(=O)C(c3cc(Cl)c(O)c(Cl)c3)NC(=O)C(NC(=O)C(=O)c3cc(Cl)c(O)c(Cl)c3)Cc3c[nH]c4cc(ccc34)-c3cc2cc(c3O)Oc2ccc(cc2)CC1C(=O)NC(C(=O)O)c1ccc(O)cc1` (centres unmarked) [complestatin], the “inhibition of specific binding of 125I-bFGF to receptors” value with bFGF receptors is on record as “concentration-dependently inhibit”. In addition, the “inhibition of Balb/3T3 clone A31 cell migration stimulated by bFGF” value in the experiment with Balb/3T3 clone A31 cells is on record as “concentration-dependently inhibit”. In addition, in experiment [1], the “inhibition of growth of FBHE promoted by bFGF” value is on record as “concentration-dependently inhibit”. In addition, in experiment [2], the “inhibition of growth of HUVEC promoted by bFGF” value is “concentration-dependently inhibit”. Moreover, in experiment [3] (0.78 μg/ml complestatin), the inhibition at 0.78 µg/mL came out at 3%. In experiment [3] (1.6 μg/ml complestatin), the inhibition at 1.6 µg/mL was 17%. The inhibition at 3.1 µg/mL in experiment [3] (3.1 μg/ml complestatin) was determined as 10%. The inhibition at 6.3 µg/mL in experiment [3] (6.3 μg/ml complestatin) stood at 21%. Also, the inhibition at 13 µg/mL in experiment [3] (13 μg/ml complestatin) turned out to be 43%. The inhibition at 25 µg/mL in experiment [3] (25 μg/ml complestatin) stood at 91%. The inhibition at 50 µg/mL in experiment [3] (50 μg/ml complestatin) was 94%. The inhibition at 100 µg/mL in experiment [3] (100 μg/ml complestatin) turned out to be 99%. Also, the Angiogenesis inhibition rate in experiment [4] (6.25 μg/egg) came out at 14%; in experiment [4] (12.5 μg/egg), 33%; in experiment [4] (25 μg/egg) it was 33%; in experiment [4] (50 μg/egg), 52%; in experiment [4] (100 μg/egg) it was 77%. Besides, the “Growth inhibition rate (tumor size)” value in experiment [5] (5 mg/kg intraperitoneally) turned out to be 40%; in experiment [5] (10 mg/kg intraperitoneally), 68%; in experiment [6], 76%.
